Assay results published in paper PMC5660082, “Bioluminescence imaging of G protein-coupled receptor activation in living mice” (Nature Communications, 2017).
Read-outs that look alike come from different tables or passages of the source.

Target: T1, Sphingosine-1-phosphate receptor 1 (S1P1) (Mus musculus, UniProt O08530)
T1 construct: gene S1pr1; mouse S1pr1 coding region with C terminus linked to C-terminal firefly luciferase fragment (amino acids #394–550), S1P1–CLuc; with NLuc–β-arrestin2
Test: split luciferase β-arrestin2 recruitment (bioluminescence) in knock-in mouse embryonic fibroblasts
Assay type: cell-based

T1 sequence (O08530 2-382): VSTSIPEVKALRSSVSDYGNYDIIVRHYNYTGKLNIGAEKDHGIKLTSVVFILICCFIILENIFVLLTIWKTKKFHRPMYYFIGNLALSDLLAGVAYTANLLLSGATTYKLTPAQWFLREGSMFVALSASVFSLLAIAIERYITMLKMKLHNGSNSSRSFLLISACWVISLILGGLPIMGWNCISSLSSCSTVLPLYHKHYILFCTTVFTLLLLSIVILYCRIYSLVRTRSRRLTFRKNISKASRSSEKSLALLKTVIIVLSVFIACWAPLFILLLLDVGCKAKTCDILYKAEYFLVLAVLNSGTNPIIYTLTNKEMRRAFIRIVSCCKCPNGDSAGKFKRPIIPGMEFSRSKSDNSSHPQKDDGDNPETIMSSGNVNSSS
T1 sequence (Q91YI4 whole entry partner, the tested form may be a part): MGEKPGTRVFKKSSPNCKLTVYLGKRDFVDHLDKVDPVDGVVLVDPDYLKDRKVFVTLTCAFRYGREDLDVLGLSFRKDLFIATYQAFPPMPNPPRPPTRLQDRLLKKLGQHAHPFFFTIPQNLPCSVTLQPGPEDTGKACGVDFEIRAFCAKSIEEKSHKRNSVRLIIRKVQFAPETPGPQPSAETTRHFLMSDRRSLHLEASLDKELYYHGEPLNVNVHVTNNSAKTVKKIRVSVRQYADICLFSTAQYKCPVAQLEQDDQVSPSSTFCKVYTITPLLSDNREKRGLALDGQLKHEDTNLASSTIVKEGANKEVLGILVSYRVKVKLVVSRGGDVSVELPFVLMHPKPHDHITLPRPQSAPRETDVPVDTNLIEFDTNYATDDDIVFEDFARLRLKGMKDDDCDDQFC

CCCCCCCCCCCCC/C=C/[C@@H](O)[C@@H](N)COP(=O)(O)O [S1P]
EC50 (read-out: EC50): 19.4 ± 0.8 nM

CCCCCCCCCCCCCCC[C@@H](O)[C@@H](N)COP(=O)(O)O [dihydro-S1P]
EC50: 32.4 ± 0.5 nM
